Reference: patent publication US20240277713A1 (Kadmon Corporation, LLC, priority 2022, published 2024)

Assays:
[1] = tested on: Sprague-Dawley rats; assay: Pilot prenatal developmental toxicity study in Sprague-Dawley rats (Example 1); type: in vivo, rat
Source text: A total of 52 Sprague-Dawley (SD) rats were used in this study.
Observations of the animals included cageside assessments (twice daily), evaluation of clinical signs (daily from GD 6 through 20), body weights (at arrival—GD 2 or 3—and GD 6, 9, 12, 15, 18, and 20), food consumption (GD 6-20), and anatomical pathology including a uterine examination. […] All fetuses were given an external examination.

[2] = Toxicokinetics in pregnant Sprague-Dawley rats (Example 1); type: in vivo, rat; details: female, Sprague-Dawley, rat, in vivo, po, 25 mg base/kg/day
[3] = Toxicokinetic evaluation in pregnant rabbits (Example 4); type: in vivo, rabbit; details: for Cmax / AUC(0-t): female, New Zealand White, rabbit, plasma, po; for AUC(0-t): read-out: Mean AUC0-24 in plasma of pregnant rabbits
Experimental: The dose levels for the treated groups were 50, 125, 225, mg base/kg/day at a dose volume of 10 mL/kg. The control group received the vehicle in the same manner as the treated groups. […] Individual doses were based on the most recent body weights.
Observations of the animals included clinical signs, body weights, food consumption, and anatomical pathology including a uterine examination. […] All fetuses were given an external, visceral, and skeletal examination.

[4] = tested on: Sprague-Dawley rats; assay: Fertility and early embryonic development to implantation study in Sprague-Dawley rats (Example 5)
Source text: This study design used naive animals of both sexes, incorporated treatment of both sexes, and provided for a recovery period for the treated males based on study outcome.
Male and female Sprague-Dawley (SD) rats were obtained from Charles River Laboratories, Raleigh, North Carolina (approximately 7 to 10 weeks of age). Using a standard, by weight, randomization procedure, 273 male and 273 female animals (weighing 229 to 497 g and 169 to 242 g, respectively, at randomization) were assigned to control, treatment, and toxicokinetic (TK) groups. The dose volume for each group was 10 mL/kg providing a dose concentration in mg/base/mL of one tenth the dose level). (In Table 24, T=Treated; U=Untreated).
Dosing began at 11 weeks of age and 70 days prior to pairing (with untreated females) for the treated males, and 14 days prior to pairing (with untreated males) for the treated females. Dosing of the males continued through the mating and postmating period to euthanasia, while dosing of the females continued through the mating period to GD 7. Females with no evidence of mating were dosed for 7 days following completion of the mating period. Males designated for the recovery phase were dosed for 70 days, and then received a 77 day recovery period.
Animals were observed cageside, for detailed clinical changes, body weights, food consumption, estrous cycle determinations, plasma analysis, sperm analysis, toxicokinetic analysis, and anatomical pathology including uterine and ovarian examinations.
Cageside observations were made at least twice daily.
Detailed clinical observations were made during treatment phases: for males, twice weekly during treatment (4 hours+/−1 hour on dosing days), and for females, daily during treatment (4 hours+/−1 hour on dosing days). During non-treatment phases (males and females), detailed clinical observations occurred weekly and also prior to the scheduled uterine examination (females) on GD 13.
For each endpoint, treatment groups were compared to the control group using the analysis outlined in Table 25. Data for some endpoints, as indicated, were transformed by an arcsin-square root transformation prior to conducting the specified analysis.

[5] = Clinical drug interaction studies, effects of other drugs on belumosudil; type: in vivo, human; details: healthy subjects
[6] = biological target: CYP2C19 (Homo sapiens, UniProt P33261); assay: Enzyme systems in vitro: CYP2C19; type: in vitro ADME
Chain of CYP2C19 (P33261 whole entry): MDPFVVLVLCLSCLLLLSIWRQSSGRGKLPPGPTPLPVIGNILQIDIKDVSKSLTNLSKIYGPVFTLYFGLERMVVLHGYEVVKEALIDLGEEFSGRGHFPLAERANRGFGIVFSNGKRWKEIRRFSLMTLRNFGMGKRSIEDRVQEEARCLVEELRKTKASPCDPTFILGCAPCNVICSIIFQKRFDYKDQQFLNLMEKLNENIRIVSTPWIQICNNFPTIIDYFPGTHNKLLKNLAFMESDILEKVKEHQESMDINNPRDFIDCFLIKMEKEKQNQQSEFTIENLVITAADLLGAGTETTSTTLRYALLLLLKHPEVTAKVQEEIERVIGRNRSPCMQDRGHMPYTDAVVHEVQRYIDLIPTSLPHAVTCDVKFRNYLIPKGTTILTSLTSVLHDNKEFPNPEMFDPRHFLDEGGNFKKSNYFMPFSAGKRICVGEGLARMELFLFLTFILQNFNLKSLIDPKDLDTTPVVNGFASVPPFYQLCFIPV

[7] = biological target: T1, UGT1A9 (Homo sapiens, UniProt O60656); assay: Enzyme systems in vitro: UGT1A9; type: in vitro ADME
T1 sequence (O60656 26-530): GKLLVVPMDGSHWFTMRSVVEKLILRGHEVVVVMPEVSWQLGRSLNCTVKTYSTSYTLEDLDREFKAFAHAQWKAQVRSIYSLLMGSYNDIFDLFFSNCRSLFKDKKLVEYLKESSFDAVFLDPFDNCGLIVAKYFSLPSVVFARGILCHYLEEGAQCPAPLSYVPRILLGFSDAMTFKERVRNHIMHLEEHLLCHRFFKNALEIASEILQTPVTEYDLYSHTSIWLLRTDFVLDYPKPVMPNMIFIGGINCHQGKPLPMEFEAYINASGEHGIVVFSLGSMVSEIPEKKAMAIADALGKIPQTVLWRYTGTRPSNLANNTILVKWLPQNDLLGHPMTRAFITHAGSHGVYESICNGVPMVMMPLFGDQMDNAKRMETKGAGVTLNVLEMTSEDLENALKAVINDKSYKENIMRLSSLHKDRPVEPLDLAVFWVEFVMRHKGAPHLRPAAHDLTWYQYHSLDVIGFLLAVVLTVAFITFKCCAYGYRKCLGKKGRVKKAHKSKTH

[8] = 50 mg base/kg, GD 18, belumosudil 50 mg base/kg oral
[9] = 50 mg/kg/day, GD 6, belumosudil 50 mg base/kg oral
[10] = 125 mg/kg/day, GD 6, belumosudil 125 mg base/kg oral
[11] = 125 mg/kg/day, GD 18, belumosudil 125 mg base/kg oral
[12] = 225 mg/kg/day, GD 6, belumosudil 225 mg base/kg oral
[13] = 225 mg/kg/day, GD 18, belumosudil 225 mg base/kg oral
[14] = coadministration of rabeprazole

Question: What does the source list for `CC(C)NC(=O)COc1cccc(-c2nc(Nc3ccc4[nH]ncc4c3)c3ccccc3n2)c1` [belumosudil, 2-{3-[4-(1H-indazol-5-ylamino)-2-quinazolinyl]phenoxy}-N-(propan-2-yl) acetamide]?
Answer: Mean post-implantation loss ([1]; 25 mg base/kg/day): 4.00 % per litter; Mean viable litter size ([1]; 25 mg base/kg/day): 13.2; combined mean fetal body weight (males and females) ([1]; 25 mg base/kg/day): 4.37 g; mean fetal body weight (female fetuses) ([1]; 25 mg base/kg/day): 4.19 g; Mean post-implantation loss ([1]; 50 mg base/kg/day): 11.62 % per litter; Mean viable litter size ([1]; 50 mg base/kg/day): 11.6; combined mean fetal body weight (males and females) ([1]; 50 mg base/kg/day): 4.50 g; litter incidence of external fetal malformations ([1]; 50 mg base/kg/day): 40%; mean fetal body weight (female fetuses) ([1]; 50 mg base/kg/day): 4.39 g; Mean post-implantation loss ([1]; 150 mg base/kg/day): 4.51 % per litter; Mean viable litter size ([1]; 150 mg base/kg/day): 12.2; combined mean fetal body weight (males and females) ([1]; 150 mg base/kg/day): 4.22 g; litter incidence of external fetal malformations ([1]; 150 mg base/kg/day): 20%; maternal toxicity ([1]; 150 mg base/kg/day): moderate; mean body weights ([1]; 150 mg base/kg/day): reduced throughout gestation; mean fetal body weight (female fetuses) ([1]; 150 mg base/kg/day): 4.18 g; Mean post-implantation loss ([1]; 300 mg base/kg/day): 24.51 % per litter; Mean viable litter size ([1]; 300 mg base/kg/day): 10.0; clinical signs ([1]; 300 mg base/kg/day): unkempt and/or thin appearance, and hunched posture; combined mean fetal body weight (males and females) ([1]; 300 mg base/kg/day): 3.42 g; litter incidence of external fetal malformations ([1]; 300 mg base/kg/day): 25%; maternal, embryo, and fetal toxicity ([1]; 300 mg base/kg/day): excessive; mean body weight values, body weight gains and food consumption ([1]; 300 mg base/kg/day): adversely affected at every interval; mean fetal body weight (female fetuses) ([1]; 300 mg base/kg/day): 3.34 g; maternal toxicity ([1]; 25 and 50 mg base/kg/day): slight; mean body weight gains and food consumption ([1]; 25 and 50 mg base/kg/day, GD 6-9, 6-18, 6-20): slightly reduced; maternal necropsy findings ([1]; any treated group): No adverse maternal necropsy findings; doses at which fetal malformations were observed (absence of anus and tail, omphalocele, dome shaped head) ([1]; pilot study, pregnant rats, oral): ≥ 50 mg/kg/day; AUC(0-t) ([2]; read-out: maternal AUC0-24): 20400 ng·h/mL; Cmax ([2]; read-out: maternal Cmax): 1800 ng/mL; Cmax [3, 8]: 437 ng/mL; AUC(0-t) [3, 8]: 1590 ng·h/mL; Cmax [3, 9]: 919 ng/mL; AUC(0-t) [3, 9]: 3870 ng·h/mL; Cmax [3, 10]: 3030 ng/mL; AUC(0-t) [3, 10]: 21400 ng·h/mL; Cmax [3, 11]: 1670 ng/mL; AUC(0-t) [3, 11]: 9290 ng·h/mL; Cmax [3, 12]: 4140 ng/mL; AUC(0-t) [3, 12]: 55700 ng·h/mL; Cmax [3, 13]: 2580 ng/mL; AUC(0-t) [3, 13]: 23500 ng·h/mL; accumulation after multiple dosing of belumosudil ([3]; pregnant rabbits): no apparent accumulation; NOAEL for female reproductive performance and fertility ([4]; female rats): 275 mg base/kg/day; dose with adverse findings in female rats (increased pre- or post-implantation loss, decreased number of viable embryos) ([4]; female, Sprague-Dawley, rat, in vivo): 275 mg/kg/day; NOAEL for general toxicity endpoints ([4]; male and female rats): 50 mg base/kg/day; NOAEL for male reproductive performance and fertility ([4]; male rats): 150 mg base/kg/day; dose in male rats with abnormal sperm findings and testes/epididymis organ changes ([4]; male, Sprague-Dawley, rat, in vivo, po): 275 mg/kg/day; reproductive and fertility indices, treated females ([4]; rat, in vivo): unaffected; NOAEL for ovarian and uterine parameters ([4]; treated females): 150 mg base/kg/day; effect on belumosudil exposure ([5]; coadministered with itraconazole): no clinically meaningful effect; decrease in belumosudil AUC ([5]; coadministration of omeprazole): 47%; decrease in belumosudil Cmax ([5]; coadministration of omeprazole): 68%; decrease in belumosudil AUC [5, 14]: 80%; decrease in belumosudil Cmax [5, 14]: 87%; decrease in belumosudil AUC ([5]; coadministration of rifampin): 72%; decrease in belumosudil Cmax ([5]; coadministration of rifampin): 59%; CYP2C19 inhibition [6]: inhibitor; UGT1A9 inhibition [7]: inhibitor
